Non-standard residues stand in square brackets, D forms with d. Residues, ends and D or L forms follow the SMILES beside them. *: point of attachment. X1 = Fc1ccc(-c2csc(N3CCOCC3)n2)c(OCCOCCOCCN*)c1F; X2 = O=C(NCCCCCCN*)c1cccc2sc(N3CCOCC3)nc12; Dip = N[C@H](C(=O)O)C(c1ccccc1)c1ccccc1; Chg = N[C@H](C(=O)O)C1CCCCC1; NMeA = CN[C@@H](C)C(=O)O
Columns and labels:
Format in all cases: physicochemical
[1] = Kinetic solubility of the compound incubated for 60 mins under shaking condition by UV-Vis spectroscopic analysis; details: 1 h
[2] = Distribution coefficient, logD of compound in n-Octanol/PBS at pH 7.4 incubated for 30 mins under shaking condition by UHPLC-MS analysis
[3] = Distribution coefficient, logD of compound in n-Octanol/PBS at pH 7.4 incubated for 30 mins under shaking condition by UV-Vis spectroscopic analysis; details: for logD: octanol/water, pH 7.4, 0.5 h, BLD = below limit of detection; for logD at 0.5 h: n-octanol/PBS, pH 7.4
[4] = Kinetic solubility of the compound incubated for 60 mins under shaking condition by UHPLC-MS analysis; details: 1 h

log(Kinetic_solubility) [1] | logD at 0.5 h [2] | logD [3] | log(Kinetic_solubility) [4] | logD at 0.5 h [3] | log(Kinetic_solubility) ([1]; BLD = below limit of detection) | log(Kinetic_solubility) ([4]; BLD = below limit of detection) | SMILES
-4.28 | 4.43 | Bld | -4.14 | – | – | – | Cn1c(=O)n(C)c2cc(CNCCCNCC3CCN(c4ccc(C(=O)N[C@H]5CC[C@H](Oc6ccc(C#N)c(Cl)c6)CC5)nn4)CC3)ccc21
– | 5.1 | Bld | -6.23 | – | Bld | – | CCOC(=O)c1c(C)n(Cc2ccccc2)c2ccc(OCC(=O)NCCCC(=O)N[C@H](C(=O)N3C[C@H](O)C[C@H]3C(=O)N[C@@H](C)c3ccc(-c4scnc4C)cc3)C(C)(C)C)cc12
– | 5 | Bld | -7.21 | – | Bld | – | Cc1ncsc1-c1ccc([C@H](C)NC(=O)[C@@H]2C[C@@H](O)CN2C(=O)[C@@H](NC(=O)CCCCCCCCCCC(=O)N2CCN(C(=O)c3cc(Cc4n[nH]c(=O)c5ccccc45)ccc3F)CC2)C(C)(C)C)cc1
– | 5.6 | Bld | -7.34 | – | Bld | – | COc1ccc2c(c1)c(CC(=O)NCCCCCCC(=O)N[C@H](C(=O)N1C[C@H](O)C[C@H]1C(=O)N[C@@H](C)c1ccc(-c3scnc3C)cc1)C(C)(C)C)c(C)n2C(=O)c1ccc(Cl)cc1
– | 3.64 | – | -6.13 | 3.48 | Bld | – | O=C(CCCCCCCCCCC(=O)N1CCN(C(=O)c2cc(Cc3n[nH]c(=O)c4ccccc34)ccc2F)CC1)NCCNc1cccc2c1C(=O)N(C1CCC(=O)NC1=O)C2=O (stereo not given)
-4.82 | 5.2 | Bld | -5.22 | – | – | – | Cc1ncsc1-c1ccc([C@H](C)NC(=O)[C@@H]2C[C@@H](O)CN2C(=O)[C@@H](NC(=O)CNCCOCCOc2c(-c3csc(N4CCOCC4)n3)ccc(F)c2F)C(C)(C)C)cc1
– | 5.2 | Bld | -7.05 | – | Bld | – | Cc1ncsc1-c1ccc(CNC(=O)[C@@H]2C[C@@H](O)CN2C(=O)[C@@H](NC(=O)CCCCOCCCCCOCCCCCCNc2cccc3c2C(=O)N(C2CCC(=O)NC2=O)C3=O)C(C)(C)C)cc1 (stereo not given in full)
– | 5.21 | Bld | – | – | Bld | Bld | CCOC(=O)c1c(C)n(Cc2ccccc2)c2ccc(OCCCCCCCCC(=O)N[C@H](C(=O)N3C[C@H](O)C[C@H]3C(=O)N[C@@H](C)c3ccc(-c4scnc4C)cc3)C(C)(C)C)cc12
-3.07 | 2.52 | – | -3.06 | 2.45 | – | – | Cn1c(=O)n(C)c2cc(CNCCOCCOCCNCC3CCN(c4ccc(C(=O)N[C@H]5CC[C@H](Oc6ccc(C#N)c(Cl)c6)CC5)nn4)CC3)ccc21
– | 5.5 | Bld | – | – | Bld | Bld | Cc1ncsc1-c1ccc([C@H](CC(=O)N2CCC(N3CCC(C#Cc4ccc(C(=O)N[C@H]5C(C)(C)[C@H](Oc6ccc(C#N)c(Cl)c6)C5(C)C)cc4)CC3)CC2)NC(=O)[C@@H]2C[C@@H](O)CN2C(=O)[C@@H](NC(=O)C2(F)CC2)C(C)(C)C)cc1

The next lines start with the compound.

SMILES | log(Kinetic_solubility) [1] | logD at 0.5 h [2] | logD [3] | log(Kinetic_solubility) [4] | logD at 0.5 h [3] | log(Kinetic_solubility) ([1]; BLD = below limit of detection) | log(Kinetic_solubility) ([4]; BLD = below limit of detection)
COc1ccc2c(c1)c(CC(=O)NCCN1CCN(C(=O)CCC(=O)N[C@H](C(=O)N3C[C@H](O)C[C@H]3C(=O)N[C@@H](C)c3ccc(-c4scnc4C)cc3)C(C)(C)C)CC1)c(C)n2C(=O)c1ccc(Cl)cc1 | -5.22 | 4.8 | Bld | -5.7 | – | – | –
COc1ccc2c(c1)c(CC(=O)N1CCN(CCOCCOCC(=O)N[C@H](C(=O)N3C[C@H](O)C[C@H]3C(=O)N[C@@H](C)c3ccc(-c4scnc4C)cc3)C(C)(C)C)CC1)c(C)n2C(=O)c1ccc(Cl)cc1 | -5.11 | 4.33 | – | -5.22 | 4.1 | – | –
Cc1ncsc1-c1ccc([C@H](C)NC(=O)[C@@H]2C[C@@H](O)CN2C(=O)[C@@H](NC(=O)CCCCn2cc(CCCC(=O)N3CCN(C(=O)c4cc(Cc5n[nH]c(=O)c6ccccc56)ccc4F)CC3)nn2)C(C)(C)C)cc1 | -4.37 | 3 | – | -4.34 | 2.89 | – | –
CN[C@@H](C)C(=O)N[C@H](C(=O)N1CCC[C@H]1C(=O)N[C@H](C(=O)NCCCCCCNC(=O)c1cccc2sc(N3CCOCC3)nc12)C(c1ccccc1)c1ccccc1)C1CCCCC1 (H-[NMeA][Chg]P[Dip]-X2) | -4.66 | 5.1 | Bld | -4.72 | – | – | –
Cc1ncsc1-c1ccc([C@H](CC(=O)NCCCCCCCCCCC(=O)N[C@H]2C(C)(C)[C@H](Oc3ccc(C#N)c(Cl)c3)C2(C)C)NC(=O)[C@@H]2C[C@@H](O)CN2C(=O)[C@@H](NC(=O)C2(F)CC2)C(C)(C)C)cc1 | – | 4.9 | Bld | – | – | Bld | Bld
COc1ccc2c(c1)c(CC(=O)NCCN1CCN(CCOCCOCC(=O)N[C@H](C(=O)N3C[C@H](O)C[C@H]3C(=O)N[C@@H](C)c3ccc(-c4scnc4C)cc3)C(C)(C)C)CC1)c(C)n2C(=O)c1ccc(Cl)cc1 | -4.59 | 5.1 | Bld | -4.62 | – | – | –
Cc1ccc(-c2csc(N3CCOCC3)n2)c(OCC(=O)NCCCCC(=O)N[C@H](C(=O)N2C[C@H](O)C[C@H]2C(=O)N[C@@H](C)c2ccc(-c3scnc3C)cc2)C(C)(C)C)c1C | -4.89 | 5.02 | Bld | -5.05 | – | – | –
Cc1ncsc1-c1ccc([C@H](C)NC(=O)[C@@H]2C[C@@H](O)CN2C(=O)[C@@H](NC(=O)COCCOCCNC(=O)COc2c(-c3csc(N4CCOCC4)n3)ccc(F)c2F)C(C)(C)C)cc1 | -4.47 | 3.94 | – | -4.52 | 3.5 | – | –
Cc1ncsc1-c1ccc([C@H](C)NC(=O)[C@@H]2C[C@@H](O)CN2C(=O)[C@@H](NC(=O)CCCCn2cc(CN3CCN(C(=O)C[C@@H]4N=C(c5ccc(Cl)cc5)c5c(sc(C)c5C)-n5c(C)nnc54)CC3)nn2)C(C)(C)C)cc1 | -4.54 | 4.12 | – | -4.68 | 3.81 | – | –
Cc1ncsc1-c1ccc([C@H](C)NC(=O)[C@@H]2C[C@@H](O)CN2C(=O)[C@@H](NC(=O)CCCCCCOc2ccc3c(c2)c(C(=O)O)c(C)n3Cc2ccccc2)C(C)(C)C)cc1 | – | 5 | Bld | -5.8 | – | Bld | –
Cn1c(=O)n(C)c2cc(CNCCOCCNCC3CCN(c4ccc(C(=O)N[C@H]5CC[C@H](Oc6ccc(C#N)c(Cl)c6)CC5)nn4)CC3)ccc21 | -3.69 | 3.7 | – | -3.64 | 3.25 | – | –
COc1ccc2c(c1)c(CC(=O)N1CCN(CC(=O)N[C@H](C(=O)N3C[C@H](O)C[C@H]3C(=O)N[C@@H](C)c3ccc(-c4scnc4C)cc3)C(C)(C)C)CC1)c(C)n2C(=O)c1ccc(Cl)cc1 | – | 5.3 | Bld | -6.62 | – | Bld | –
CN[C@@H](C)C(=O)N[C@H](C(=O)N1CCC[C@H]1C(=O)N[C@H](C(=O)NCCOCCOCCOc1c(-c2csc(N3CCOCC3)n2)ccc(F)c1F)C(c1ccccc1)c1ccccc1)C1CCCCC1 (H-[NMeA][Chg]P[Dip]-X1) | -4.49 | 5.1 | Bld | -4.55 | – | – | –
Cc1ncsc1-c1ccc(CNC(=O)[C@@H]2C[C@@H](O)CN2C(=O)[C@@H](NC(=O)COCCOCCOCCOCCOCCOCC(=O)N[C@H](C(=O)N2C[C@H](O)C[C@H]2C(=O)NCc2ccc(-c3scnc3C)cc2)C(C)(C)C)C(C)(C)C)cc1 | -3.25 | 3 | – | -3.24 | 3.09 | – | –
COc1ccc2c(c1)c(CC(=O)NCCCCC(=O)N[C@H](C(=O)N1C[C@H](O)C[C@H]1C(=O)N[C@@H](C)c1ccc(-c3scnc3C)cc1)C(C)(C)C)c(C)n2C(=O)c1ccc(Cl)cc1 | – | 5.47 | Bld | -6.1 | – | Bld | –
Cc1ncsc1-c1ccc([C@H](C)NC(=O)[C@@H]2C[C@@H](O)CN2C(=O)[C@@H](NC(=O)CN2CCN(C(=O)C[C@@H]3N=C(c4ccc(Cl)cc4)c4c(sc(C)c4C)-n4c(C)nnc43)CC2)C(C)(C)C)cc1 | -4.79 | 4.56 | Bld | -4.9 | – | – | –
COc1cc(C(=O)NCCCCCCNC(=O)COc2c(-c3csc(N4CCOCC4)n3)ccc(F)c2F)ccc1NC(=O)[C@@H]1N[C@@H](CC(C)(C)C)[C@](C#N)(c2ccc(Cl)cc2F)[C@H]1c1cccc(Cl)c1F | – | 4 | – | – | 3.7 | Bld | Bld
Cc1ncsc1-c1ccc([C@H](C)NC(=O)[C@@H]2C[C@H](O)CN2C(=O)[C@@H](NC(=O)COCCOCCOCC(=O)N[C@H](C(=O)N2C[C@@H](O)C[C@H]2C(=O)N[C@@H](C)c2ccc(-c3scnc3C)cc2)C(C)(C)C)C(C)(C)C)cc1 | -4.62 | 3.5 | – | -4.66 | 3.74 | – | –
COc1ccc2c(c1)c(CC(=O)N1CCN(CCC(=O)N[C@H](C(=O)N3C[C@H](O)C[C@H]3C(=O)N[C@@H](C)c3ccc(-c4scnc4C)cc3)C(C)(C)C)CC1)c(C)n2C(=O)c1ccc(Cl)cc1 | – | 5.5 | Bld | -6.1 | – | Bld | –
Cc1ncsc1-c1ccc([C@H](C)NC(=O)[C@@H]2C[C@@H](O)CN2C(=O)[C@@H](NC(=O)CCCCn2cc(COc3c(-c4csc(N5CCOCC5)n4)ccc(F)c3F)nn2)C(C)(C)C)cc1 | -5 | 4.99 | Bld | -5.14 | – | – | –

From ChEMBL document CHEMBL5579898, “Between Theory and Practice: Computational/Experimental Integrated Approaches to Understand the Solubility and Lipophilicity of PROTACs” (J Med Chem, 2024)
